Experimental findings from US8563596B2, “Enantiomerically pure compounds for the treatment of proliferative disorders” (Piramal Enterprises Limited, priority 2006, dated 2013) are described below.

Series [1] concerns A-549 (Lung). Kind of series: In vitro cell proliferation, 3H-Thymidine uptake assay. Type of series: cell-based, human. The following applies: cells harvested after 72 hours. The procedure:
(§1) Exponentially growing cultures of […] human cancerous cell lines (Calu1 lung, A-549 lung, HT-29 colon, HL-60 Promyelocytic Leukemia, PC-3 Prostate, H-460 Lung, MDA-MB-231 Breast, MCF-7 Breast, HeLa Cervix, Colo-205 Colon, H9 Lymphoma (T Cells), U-937 Histiocytic Lymphoma (monocytes) and CaCO-2 Colon) obtained from NCCS, Pune, India were used. The in vitro cell proliferation (NCl, USA protocol) and cytotoxicity assays were carried out using standard procedures viz. ^3H-Thymidine uptake and MTS assay, respectively (For ^3H-Thymidine uptake: Cell Biology, A Laboratory Handbook, 1998, Vol 1 Ed Julio E. Celis, and For MTS assay: Promega Protocol, USA, 2000). In the ^3H-Thymidine uptake assay, cells were harvested after 72 hours onto GF/B unifilter plates (Packard, USA) using a Packard Filtermate Universal harvester and the plates were counted on a Packard TopCount 96-well liquid scintillation counter. The concentration of compound at which 50% of proliferative activity was inhibited (IC50) and the degree of toxicity of compound were calculated for representative compounds and their pharmaceutically acceptable salts described in the Examples.

For series [2], the system named is Calu1 (Lung). The description is as above. The format is cell-based, human. The following applies: cells harvested after 72 hours. The procedure: as §1
In series [3] the test system is HT-29 (Colon). Described as above. Type of series: cell-based, human. The conditions noted are these: cells harvested after 72 hours. The protocol: as §1
Series [4] concerns A-549 (Lung). Type of series: cell-based, human. The protocol:
as §1

Series [5] has as its system Calu1 (Lung). Type of series: cell-based, human. The protocol: as §1
Series [6] concerns HT-29 (Colon). The format is cell-based, human. The protocol:
as §1

A further series addresses T1, CDK2-cyclin E (Homo sapiens, UniProt P24941).
T1 construct: made in house; host or cells: Sf9 insect cells (baculovirus)
Kind of series: CDK2/Cyclin E kinase assay (32P phosphorylation of GST-Rb, filter plate). Type of series: biochemical. The conditions noted are these: 30 min at 30° C.; GST-Rb substrate. From the text: (§2) CDK4/Cyclin D1 Kinase Assay and CDK2/Cyclin E Kinase Assay
(§3) The assays measure phosphorylation of retinoblastoma protein (Rb) by CDK4 or CDK2 upon activation by cyclin D1 or cyclin E, respectively, through the transfer of (γ^32P)-phosphate from γ^32P-ATP in a 96-well filter plate assay.
(§4) CDK4 or CDK2 was co-expressed with cyclin D1 or cyclin E, respectively, by a baculovirus expression system in insect cells. For this, 1×10^7 Sf9 cells were coinfected with baculoviruses containing human CDK-4 or 2 and cyclin D1 or E genes and after 72 hours cells were lysed in 500 μl of a lysis buffer (50 mM HEPES (pH 7.5), 10 mM MgCl2, 1 mM DTT, 5 μg/ml of aprotinin, 5 μg/ml of leupeptin, 0.1 mM NaF, 0.2 mM phenylmethylsulfonyl fluoride (PMSF), and sodium orthovanadate. Centrifuged lysate was purified on a GST-sepharose column. Purity of the proteins was checked by SDS-PAGE followed by western blots using specific antibodies (Santacruz Biotec, USA) to CDK4 or CDK2.
(§5) GST-retinoblastoma (Rb) (aa 776-928) fusion protein is expressed in the bacteria E. coli and purified by GSH-Sepharose affinity chromatography. The GST-Rb bound to these beads served as the substrate in the assay.
(§6) Quantitation was by scintillation detection of (^32P)-GST-Rb in 96-well filter plates using Top Count scintillation 96-well counter (Packard, USA).
The CDK4 or CDK2 enzyme assay was run in 96-well format using Millipore ultiscreen filtration plates. All assay steps took place in a single filter plate (Unifilter plates, Packard, USA). The filtration wells were pre-wet with kinase buffer (100 μl/well) and the solution was then removed by the application of vacuum, with the filter plate on a vacuum manifold and the vacuum on. 50 μl of GST-Rb bound to GSH-Sepharose beads in kinase buffer (0.5 μg GST-Rb/50 μl) was added to each well and vacuum was applied to remove the buffer. A further 25 μl of a reaction mix containing ATP (cold+hot) and phosphatase inhibitors diluted in kinase buffer were added to each well, followed by the addition of test compound (4× final concentration in kinase buffer) or kinase buffer (control) in an additional 25 μl volume. Finally 50 μl (100 ng) of human CDK-4/D1 or CDK-2/E enzyme in kinase buffer was added to each well to initiate the reaction. The reaction was incubated for 30 min at 30° C. After the reaction was complete, vacuum was applied and the plate was washed with the wash buffer (TNEN buffer) three times. The filter plate was air-dried and placed in a Multiscreen adapter plate. To each well, 30 μl Packard Microscint-O cocktail was added and the plate was covered with a Top-Seal A film. The plate was counted in a Packard Top Count Scintillation Counter for 10 min. […]

Another series addresses T2, CDK4-cyclin D1 (Homo sapiens, UniProt P11802).
T2 construct: made in house; host or cells: Sf9 insect cells (baculovirus)
Kind of series: CDK4/Cyclin D1 kinase assay (32P phosphorylation of GST-Rb, filter plate). The format is biochemical. The conditions noted are these: 30 min at 30° C.; GST-Rb substrate.
Text: as §2, §3, §4, §5, §6
The CDK4 or CDK2 enzyme assay was run in 96-well format using Millipore ultiscreen filtration plates. All assay steps took place in a single filter plate (Unifilter plates, Packard, USA). The filtration wells were pre-wet with kinase buffer (100 μl/well) and the solution was then removed by the application of vacuum, with the filter plate on a vacuum manifold and the vacuum on. 50 μl of GST-Rb bound to GSH-Sepharose beads in kinase buffer (0.5 μg GST-Rb/50 μl) was added to each well and vacuum was applied to remove the buffer. […] The plate was counted in a Packard Top Count Scintillation Counter for 10 min. […]

The term melting point denotes the temperature of the solid-liquid transition. By IC50 is commonly meant the concentration that gives 50% inhibition. High values mean weaker potency, low ones greater potency.

Where two headings read alike, the source gives them in different places. Some results are limits rather than exact numbers.

T2 sequence (P11802 whole entry): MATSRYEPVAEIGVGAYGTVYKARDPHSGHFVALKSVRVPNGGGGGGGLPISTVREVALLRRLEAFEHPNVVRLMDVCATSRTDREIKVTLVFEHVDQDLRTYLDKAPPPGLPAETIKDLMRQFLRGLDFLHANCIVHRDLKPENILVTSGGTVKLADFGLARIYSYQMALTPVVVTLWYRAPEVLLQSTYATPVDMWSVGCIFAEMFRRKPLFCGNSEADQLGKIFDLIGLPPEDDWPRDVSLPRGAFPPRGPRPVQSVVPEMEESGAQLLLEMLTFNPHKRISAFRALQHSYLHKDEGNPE
T2 sequence (P24385 whole entry partner): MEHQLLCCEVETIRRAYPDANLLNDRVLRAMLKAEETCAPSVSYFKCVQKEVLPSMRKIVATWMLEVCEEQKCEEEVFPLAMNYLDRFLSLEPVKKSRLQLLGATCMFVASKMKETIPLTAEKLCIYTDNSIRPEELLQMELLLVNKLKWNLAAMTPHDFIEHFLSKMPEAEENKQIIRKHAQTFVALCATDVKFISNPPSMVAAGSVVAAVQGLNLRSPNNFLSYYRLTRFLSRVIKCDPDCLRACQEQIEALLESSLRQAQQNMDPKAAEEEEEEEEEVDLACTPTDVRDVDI

Regarding `CN1CC[C@@H](c2c(O)cc(O)c3c(=O)cc(-c4cc(F)ccc4Cl)oc23)[C@@H]1CO`, the melting point was in the range of 253 to 254 °C.
Still for that read-out and setting: for `COc1cc(OC)c2c(=O)cc(-c3ccccc3Cl)oc2c1[C@@H]1CCN(C)[C@H]1CO` the value was 91 to 93 °C.
In the case of “(+)-trans-2-(2-Chloro-4-nitrophenyl)-5,7-dihydroxy-8-(2-hydroxymethyl-1-methylpyrrolidin-3-yl)-chromen-4-one hydrochloride [Example 50]”, the IC50 is 1.2 µM with A-549 (Lung) [1]; under 0.3 µM in the series with Calu1 (Lung) [2]; 1.5 µM with HT-29 (Colon) [3]; 1200 nM in the series on A-549 (Lung) [4]; 1400 nM in the series on Calu1 (Lung) [5]; 1100 nM in the series with HT-29 (Colon) [6]. Also, the IC50 was 1.7 µM against CDK2-cyclin E and 0.045 µM on CDK4-cyclin D1.
Regarding “(+)-trans-2-(2-Chlorophenyl)-5,7-dihydroxy-8-(2-hydroxymethyl-1-methyl-pyrrolidin-3-yl)-chromen-4-one hydrochloride [Example 10]”, the IC50 in the series on A-549 (Lung) [1] was 0.18 µM; in the series with Calu1 (Lung) [2], under 0.3 µM; in the series with HT-29 (Colon) [3] it was 0.68 µM; in the series with A-549 (Lung) [4] it was 700 nM; with Calu1 (Lung) [5], 880 nM; with HT-29 (Colon) [6], 580 nM. For the same molecule, the IC50 is 2.8 µM at CDK2-cyclin E and 0.065 µM against CDK4-cyclin D1.
As for “(−)-trans-2-(2-Chloro-4-nitrophenyl)-5,7-dihydroxy-8-(2-hydroxymethyl-1-methylpyrrolidin-3-yl)-chromen-4-one hydrochloride [Example 97-(D)]”, the IC50 in the series on HT-29 (Colon) [3] is 10 µM; against CDK2-cyclin E, over 10 µM; on CDK4-cyclin D1, 1 µM.
As to “(−)-trans-2-(2-Chlorophenyl)-5,7-dihydroxy-8-(2-hydroxymethyl-1-methyl pyrrolidin-3-yl)-chromen-4-one hydrochloride [Example 96-(F)]”, the IC50 with A-549 (Lung) [1] was 10 µM; in the series with HT-29 (Colon) [3] it was 25 µM; with A-549 (Lung) [4] it was 16000 nM; in the series with Calu1 (Lung) [5] it was 16300 nM; with HT-29 (Colon) [6], 17900 nM; against CDK2-cyclin E, 21 µM.
